According to patent US9156830B2, “Heterocyclic compounds” (SHIONOGI & CO., LTD., priority 2011, dated 2015):
pIC50: −log10 of the molar value.

What was measured:
[1] = target: T1, Human TRPV1 (Homo sapiens (Human), UniProt Q8NER1); assay: Capsaicin-Based Assay (Protocol 2), TRPV1/CHO cells; type: cell-based; conditions: capsaicin 100 nM final
Protocol: The TRPV1/CHO cell line was generated as described below. […] Subsequently, the cells were loaded by incubation in 0.1 mL of wash buffer containing Fluo-4 at 3 μM final concentration. After 1 hour, the cells were washed twice with 0.2 mL wash buffer and resuspended in 0.1 mL wash buffer. The plates were then transferred to a Fluorescence Imaging Plate Reader (Molecular Devices). Fluorescence intensity was monitored for 15 seconds to establish a baseline. […] The final concentration of the compound was adjusted to range from 100 μM to 1.5625 μM. […] Data were collected over the entire time course and analyzed using Excel and the curve-fitting formula GraphPad Prism.

[2] = target: T1, Human TRPV1; assay: pH-Based Assay (Protocol 2), Ca2+ response in TRPV1/CHO cells; type: cell-based; conditions: pH 5.0-5.1 (H2SO4)
Protocol: The TRPV1/CHO cell line was generated as described below. The following assay was conducted to determine the concentration of sulfuric acid that would give rise to a pH that induces a […] response optimal to test compounds for their effect on TRPV1. […] For one half of a 96-well plate one agonist solution was used, for the other half the other agonist solution. The agonist solutions were obtained by diluting sulfuric acid (H2SO4, 1 M) with measuring buffer. The concentrations for the two agonist solutions were determined as described above in Section 2 of Protocol 2. The sulfuric acid concentrations between the two agonist solutions differed by 0.5 mM. […] The thereby-obtained solutions were further diluted in measuring buffer (1:100) as 10× stock serial dilutions with a DMSO concentration of 1%. 10 μL of a 10× stock was added into each well at step 3.3.(4) of Protocol 2. Thus, the final concentrations of antagonists ranged from 1000-0.977 nM containing 0.1% DMSO (FIG. 3B). […] (3) The cells were washed twice with 150 μL of measuring buffer (mentioned in 2.2.(3) of Protocol 2, no probenecid). The wells were subsequently refilled with 70 μL of measuring buffer. (4) Either 10 μL of measuring buffer or 10 μL of 10× stock serial dilution of test compound (described in 3.2. above) were applied to each well. Usually, only one test compound was tested per 96-well plate. The number of replicates per 96-well plate for a particular antagonist at a particular concentration was 7×2 since two different sulfuric acid concentrations were used per 96-well plate (N=7×2)(FIG. 3). Step (5) was the same as 2.2.(4) above. (6) Fura-2 fluorescent intensity was monitored as described in 2.2.(5) above. […] Steps (7) and (8) were as described in 2.2.(6) and 2.2.(7) above, respectively. […] FIG. 3) were measured one by one using a portable pH meter.

[3] = Measurement of Body Temperature Increase; type: in vivo; conditions: Crl/SD rats, oral, 1 mg/mL in 0.5% methylcellulose at 10 mL/kg; rectal temperature 0.5, 1 and 2 hrs after administration; difference from vehicle group average
Protocol: Selection of rats (Crl/SD rats, 7 weeks, male) for this study is based on rectal body temperature measured during the morning of the day of dosing. In addition, animals selected for this study are acclimated to both the rectal measurement procedure and to being handled and dosed to minimize spontaneous, stress-induced, increases in body temperature. The study is conducted in the animal care laboratories where the room temperature and humidity are kept. The rats are free to move and food and water during the study. Each rat is numbered with color line on the tail, housed in each cage and permittted the normal range of movement. Immediately before each body temperature is measured, they transferred to a single cage at each measurement. To reduce stress which affected the body temperature, the rats are covered with towels at the measurement. The thermistor probe is then carefully inserted into the rectum of each rat and left in place until the value on the digital display had stabilized.
On the day before dosing, rectal body temperatures are measured at 9:00, 10:00, 11:00, 12:30, 13:30, 14:30 and 15:30 to familiarize the animals with the measurement procedure prior to administration of the test or control treatments. The rats are also dosed by oral gavage without vehicle at 12:30 to acclimate and familiarized the animals with the handling and dosing procedure.
On the day of dosing, only rats whose rectal body temperatures are within the range of 37.0° C. to 37.7° C. are selected for this study. Rectal body temperatures are measured at 9:00, 10:00 and 11:00. Rats whose rectal body temperatures are over 37.9° C. at 10:00, and are outside the range of 37.0° C. to 37.7° C. at 11:00 are excluded from the study. The selected rats are divided to several groups based on their rectal body temperatures at 11:00. Rectal body temperatures of the selected rats are measured again at 12:30, and any rats whose rectal body temperature is 38.0° C. or greater are excluded from the study.
Following the group assignment, test compounds or vehicle is administrated to the rats. Each test compound is dissolved in 0.5% methylcellulose and the final concentration of the compound is adjusted to 1 mg/mL. Test compound is orally administrated in a volume 10 mL/kg once. 10 mL/kg of vehicle (0.5% methylcellulose) is administered to the vehicle group. The rectal body temperatures are measured 0.5, 1 and 2 hrs after the administration. The study is conducted in the animal care laboratories where the room temperature and humidity are kept.
Body temperature increase (ΔTb) is calculated from the difference from an average of the vehicle group at each time point. The body temperature increases (ΔTb) of Compounds I-20, I-25, I-26, I-28, I-29, I-33, I-34, I-36, I-37, I-63 and I-64 were less than 0.3° C.

[4] = Fluo-4, read-out: IC50 value by the Capsaicin-Based Assay
[5] = Fura-2, read-out: IC50 value by the pH-Based Assay
[6] = Fluo-4, read-out: TRPV1 IC50 Potency Capsaicin-Based Assay IC50
[7] = Fura-2, read-out: TRPV1 IC50 Potency pH-Based Assay IC50

T1 sequence (Q8NER1 whole entry): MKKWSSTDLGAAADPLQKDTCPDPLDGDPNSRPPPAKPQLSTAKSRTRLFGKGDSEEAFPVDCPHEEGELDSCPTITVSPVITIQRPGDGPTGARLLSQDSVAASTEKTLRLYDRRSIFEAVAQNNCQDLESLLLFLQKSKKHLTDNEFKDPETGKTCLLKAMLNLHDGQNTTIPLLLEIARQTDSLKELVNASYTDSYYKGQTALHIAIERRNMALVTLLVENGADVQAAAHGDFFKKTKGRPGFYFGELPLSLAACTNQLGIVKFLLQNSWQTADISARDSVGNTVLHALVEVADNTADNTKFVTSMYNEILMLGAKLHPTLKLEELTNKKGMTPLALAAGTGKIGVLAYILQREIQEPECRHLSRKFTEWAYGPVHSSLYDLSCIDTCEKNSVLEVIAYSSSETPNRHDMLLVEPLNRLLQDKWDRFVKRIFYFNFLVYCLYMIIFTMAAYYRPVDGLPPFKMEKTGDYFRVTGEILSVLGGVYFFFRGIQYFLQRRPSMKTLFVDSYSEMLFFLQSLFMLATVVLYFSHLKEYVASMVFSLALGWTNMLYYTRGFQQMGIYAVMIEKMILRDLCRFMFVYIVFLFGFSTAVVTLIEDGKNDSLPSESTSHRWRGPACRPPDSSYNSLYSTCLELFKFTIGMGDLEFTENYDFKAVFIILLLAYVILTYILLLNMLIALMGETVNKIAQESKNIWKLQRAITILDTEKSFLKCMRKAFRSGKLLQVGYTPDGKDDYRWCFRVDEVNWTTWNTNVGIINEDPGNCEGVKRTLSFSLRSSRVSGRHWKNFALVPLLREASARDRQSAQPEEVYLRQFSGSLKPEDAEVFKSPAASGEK

| Structure (SMILES) | pIC50 [1, 4] | pIC50 [2, 5] | pIC50 [1, 6] | also measured |
| --- | --- | --- | --- | --- |
| Cc1cc(NC(=O)N2CCC(F)(c3ncc(-c4cc(CO)on4)cc3Cl)CC2)ccc1C(F)(F)F [Compound I-54, 4-(3-chloro-5-(5-(hydroxymethyl)isoxazol-3-yl)pyridin-2-yl)-4-fluoro-N-(3-methyl-4-(trifluoromethyl)phenyl)piperidine-1-carboxamide] | ≥ 7.00 | ≥ 7.00 | – | – |
| O=C(Nc1ccc(C(F)(F)F)cn1)N1CC=C(c2ncc(-c3cc(CO)on3)cc2Cl)CC1 [Compound I-33, 4-(3-chloro-5-(5-(hydroxymethyl)isoxazol-3-yl)pyridin-2-yl)-N-(5-(trifluoromethyl)pyridin-2-yl)-5,6-dihydropyridine-1(2H)-carboxamide] | – | – | – | Body temperature increase (ΔTb) [3]: less than 0.3 °C |
| O=C(C#Cc1ccc(-c2nnc(CO)o2)cc1Cl)Nc1ccc(C(F)(F)F)c(Cl)c1 [Compound I-81, 3-(2-chloro-4-(5-(hydroxymethyl)-1,3,4-oxadiazol-2-yl)phenyl)-N-(3-chloro-4-(trifluoromethyl)phenyl)propiolamide] | – | – | – | pIC50 [2, 7]: 7.89 |
| O=C(Nc1ccc(C(F)(F)F)c(Cl)c1)N1CCC(F)(c2ncc(-c3cc(CO)on3)cc2Cl)CC1 [Compound I-52, N-(3-chloro-4-(trifluoromethyl)phenyl)-4-(3-chloro-5-(5-(hydroxymethyl)isoxazol-3-yl)pyridin-2-yl)-4-fluoropiperidine-1-carboxamide] | ≥ 7.00 | ≥ 7.00 | – | – |
| Cc1cc(NC(=O)N2CC=C(c3ncc(-c4nnc(CO)o4)cc3C)CC2)ccc1C(F)(F)F [Compound I-44, 4-(5-(5-(hydroxymethyl)-1,3,4-oxadiazol-2-yl)-3-methylpyridin-2-yl)-N-(3-methyl-4-(trifluoromethyl)phenyl)-5,6-dihydropyridine-1(2H)-carboxamide] | ≥ 7.00 | – | – | pIC50 [2, 7]: 9.00 |
| Cc1cc(-c2ccc(CO)o2)cnc1C1(F)CCN(C(=O)Nc2ccc(C(F)(F)F)c(Cl)c2)CC1 [Compound I-39, N-(3-chloro-4-(trifluoromethyl)phenyl)-4-fluoro-4-(5-(5-(hydroxymethyl)furan-2-yl)-3-methylpyridin-2-yl)piperidine-1-carboxamide] | – | – | 6.47 | – |
| O=C(Nc1ccc(C(F)(F)F)cn1)N1CCC(F)(c2ncc(-c3cc(CO)on3)cc2Cl)CC1 [Compound I-53, 4-(3-chloro-5-(5-(hydroxymethyl)isoxazol-3-yl)pyridin-2-yl)-4-fluoro-N-(5-(trifluoromethyl)pyridin-2-yl)piperidine-1-carboxamide] | ≥ 7.00 | ≥ 7.00 | – | – |
| Cc1cc(-c2nnc(CO)o2)cnc1C1=CCN(C(=O)Nc2ccc(C(F)(F)F)c(Cl)c2)CC1 [Compound I-43, N-(3-chloro-4-(trifluoromethyl)phenyl)-4-(5-(5-(hydroxymethyl)-1,3,4-oxadiazol-2-yl)-3-methylpyridin-2-yl)-5,6-dihydropyridine-1(2H)-carboxamide] | ≥ 7.00 | ≥ 7.00 | – | – |
| Cc1nnc(-c2cnc(C3=CCN(C(=O)Nc4ccc(C(C)(C)C)cc4)CC3)c(Cl)c2)o1 [Compound I-7] | – | – | – | pIC50 [2, 7]: 9.30 |
| O=C(Nc1ccc(C(F)(F)F)c(Cl)c1)N1CC=C(c2ncc(-c3nnc(CCO)o3)cc2Cl)CC1 [Compound I-50, N-(3-chloro-4-(trifluoromethyl)phenyl)-4-(3-chloro-5-(5-(2-hydroxyethyl)-1,3,4-oxadiazol-2-yl)pyridin-2-yl)-5,6-dihydropyridine-1(2H)-carboxamide] | – | – | – | pIC50 [2, 7]: 7.22 |

Second part, led by results:

| pIC50 [1, 4] | pIC50 [2, 5] | pIC50 [1, 6] | Structure (SMILES) | also measured |
| --- | --- | --- | --- | --- |
| ≥ 7.00 | ≥ 7.00 | – | O=C(Nc1ccc(C(F)(F)F)c(Cl)c1)N1CC=C(c2ccc(-c3nnc(CO)o3)cc2Cl)CC1 [Compound I-75, 4-(2-chloro-4-(5-(hydroxymethyl)-1,3,4-oxadiazol-2-yl)phenyl)-N-(3-chloro-4-(trifluoromethyl)phenyl)-5,6-dihydropyridine-1(2H)-carboxamide] | – |
| – | – | 7.78 | O=C(Nc1ccc(C(F)(F)F)cn1)N1CCC(F)(c2ncc(-c3nc(CO)no3)cc2Cl)CC1 [Compound I-57, 4-(3-chloro-5-(3-(hydroxymethyl)-1,2,4-oxadiazol-5-yl)pyridin-2-yl)-4-fluoro-N-(5-(trifluoromethyl)pyridin-2-yl)piperidine-1-carboxamide] | – |
| – | – | 6.45 | O=C(NCCNc1ncc(-c2nnc(CO)o2)cc1Cl)Nc1ccc(C(F)(F)F)c(Cl)c1 [Compound I-60, 1-(3-chloro-4-(trifluoromethyl)phenyl)-3-(2-(3-chloro-5-(5-(hydroxymethyl)-1,3,4-oxadiazol-2-yl)pyridin-2-ylamino)ethyl) urea] | – |
| – | – | 7.41 | O=C(Nc1ccc(C(F)(F)F)c(Cl)c1)N1CC=C(c2ncc(Cc3nnc(CO)o3)cc2Cl)CC1 [Compound I-77, N-(3-chloro-4-(trifluoromethyl)phenyl)-4-(3-chloro-5-((5-(hydroxymethyl)-1,3,4-oxadiazol-2-yl)methyl)pyridin-2-yl)-5,6-dihydropyridine-1(2H)-carboxamide] | – |
| ≥ 7.00 | – | – | Cc1cc(NC(=O)N2CC=C(c3ccc(-c4nnc(CO)o4)cc3Cl)CC2)ccc1C(F)(F)F [Compound I-76, 4-(2-chloro-4-(5-(hydroxymethyl)-1,3,4-oxadiazol-2-yl)phenyl)-N-(3-methyl-4-(trifluoromethyl)phenyl)-5,6-dihydropyridine-1(2H)-carboxamide] | pIC50 [2, 7]: 8.68 |
| ≥ 7.00 | ≥ 7.00 | – | O=C(Nc1ccc(C(F)(F)F)c(Cl)c1)C1=CCN(c2ncc(-c3nnc(CO)o3)cc2Cl)CC1 [Compound I-67, N-(3-chloro-4-(thloro-5-(5-(hydroxymethyl)-1,3,4-oxadiazol-2-yl)pyridin-2-yl)-1,2,3,6-terifluoromethyl)phenyl)-1-(3-ctrahydropyridine-4-carboxamide] | – |
| – | – | 6.65 | Cc1cc(NC(=O)N2CC=C(c3ncc(Cc4ncco4)cc3Cl)CC2)ccc1C(F)(F)F [Compound I-80, 4-(3-chloro-5-(oxazol-2-ylmethyl)pyridin-2-yl)-N-(3-methyl-4-(trifluoromethyl)phenyl)-5,6-dihydropyridine-1(2H)-carboxamide] | – |
| – | – | 6.49 | O=C(Nc1ccc(C(F)(F)F)c(Cl)c1)N1CC=C(c2ncc(N3C[C@@H](O)[C@@H](O)C3=O)cc2Cl)CC1 [Compound I-71, N-(3-chloro-4-(trifluoromethyl)phenyl)-4-(3-chloro-5-((3R,4R)-3,4-dihydroxy-2-oxopyrrolidin-1-yl)pyridin-2-yl)-5,6-dihydropyridine-1(2H)-carboxamide] | – |
